Read-outs that look alike come from different tables or passages of the source.
Assays:
[1] = test system: C2^GC03 parasites; experiment: P. falciparum proliferation assay; type: cell-based; conditions: Plasmodium falciparum
Description: (§1) Parasite proliferation was measured in 96-well plates using a fluorescent DNA-intercalating dye[68],[69]. Synchronous ring-stage parasite cultures (~1% haematocrit and 1% parasitaemia) were incubated with different concentrations of the test compound for 72 h at 37 °C and under reduced O2 conditions. The assay was terminated by freezing and thawing the samples, after which 100 μL of SYBR Safe DNA Gel Stain (Molecular Probes; 0.2 μL/mL) in a lysis buffer (20 mM Tris-HCl, 5 mM EDTA, 0.008% (w/v) saponin and 0.08% (v/v) Triton X-100; pH 7.5) was added to each well. The fluorescence from each well was measured using a Tecan Infinite M1000 PRO microplate reader (excitation wavelength 490 nm; emission wavelength 520 nm). The fluorescence values for the wells containing the highest concentration of the compound were averaged and this value was then subtracted from each of the well values obtained for that 96-well plate. The level of parasite proliferation in the presence of each compound concentration was expressed as a percentage of the proliferation measured in the absence of the compound. The IC50s were determined in SigmaPlot Windows Version 11.0 by a least-squares fit of the equation y = a/[1 + ([compound]/IC50)^c] to the data, where y is the percent parasite proliferation, a is the maximum change in the percent parasite proliferation, and c is a fitted constant. In all cases, five independent experiments were performed (on different days), and within each experiment measurements were averaged from three replicates.

[2] = biological target: T1, PfNT1 (Plasmodium falciparum, UniProt Q8IDM6); experiment: [3H]CQ uptake into Xenopus oocytes (ion and membrane-potential dependence, Supplementary Fig. 2); type: cell-based
T1 construct: expressed in transfected cells; host or cells: Xenopus laevis oocytes (stage V-VI), cRNA-injected
T1 sequence (Q8IDM6 whole entry): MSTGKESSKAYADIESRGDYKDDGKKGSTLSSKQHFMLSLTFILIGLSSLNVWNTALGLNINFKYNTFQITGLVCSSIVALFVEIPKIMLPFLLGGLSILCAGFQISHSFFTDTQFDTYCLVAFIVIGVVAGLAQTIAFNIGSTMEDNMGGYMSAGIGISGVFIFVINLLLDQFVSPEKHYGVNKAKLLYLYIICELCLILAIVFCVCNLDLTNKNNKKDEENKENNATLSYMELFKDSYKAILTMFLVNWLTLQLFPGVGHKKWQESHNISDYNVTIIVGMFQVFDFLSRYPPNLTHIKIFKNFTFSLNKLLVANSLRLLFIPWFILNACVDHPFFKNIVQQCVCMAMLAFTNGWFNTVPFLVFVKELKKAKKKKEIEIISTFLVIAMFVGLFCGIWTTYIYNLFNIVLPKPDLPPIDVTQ

[3] = test system: C6^7G8 parasites; experiment: P. falciparum proliferation assay; type: cell-based, Plasmodium falciparum
Description: as §1

[4] = test system: C4^Dd2 parasites; experiment: P. falciparum proliferation assay; type: cell-based, Plasmodium falciparum
Description: as §1

[5] = test system: 3D7 strain; experiment: P. falciparum proliferation assay; type: cell-based, Plasmodium falciparum
Description: as §1

[6] = test system: 7G8 strain; experiment: P. falciparum proliferation assay; type: cell-based, Plasmodium falciparum
Description: as §1

[7] = test system: Dd2 strain; experiment: P. falciparum proliferation assay; type: cell-based, Plasmodium falciparum
Description: as §1

[8] = test system: PfCRT^Ecu1110; experiment: cell-based; type: cell-based, Plasmodium falciparum; conditions: for PfCRT-mediated [3H]CQ transport, trans-stimulation (% PfCRTEcu1110 control): PfCRTEcu1110 oocytes, normalised to oocyte type control; for [3H]CQ transport (% PfCRTDd2 control), trans-stimulation, PfCRTEcu1110: PfCRT-mediated component (background subtracted), sheet title says normalised to PfCRTDd2 control, mean ± SEM, SEM
How it was run: (§2)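 Oocytes (ten per treatment, ≥4 independent frogs/days) were preloaded by injecting VF-6 in 25 nL ND96 at pH 5.0, 5.5, 6.0 or 7.0, or Na^+-free choline buffer, then uptake run 1.5 h, 27.5 °C, ND96 pH 5.5 by default. Internal concentrations assumed ~400 nL oocyte volume.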

[9] = test system: PfCRT^Dd2; experiment: cell-based; type: cell-based, Plasmodium falciparum; conditions: for PfCRT-mediated [3H]CQ transport, trans-stimulation (% PfCRTDd2 control): PfCRTDd2 oocytes, normalised to oocyte type control; for [3H]CQ transport (% PfCRTDd2 control), trans-stimulation, PfCRTDd2: PfCRT-mediated component (background subtracted), mean ± SEM, SEM
How it was run: as §2

[10] = Plasmodium falciparum, 72 h, read-out: IC50 (nM), parasite proliferation, + 1 μM VP, SEM
[11] = Plasmodium falciparum, DD2, 72 h, read-out: IC50 (nM), parasite proliferation, + 1 μM VP, SEM
[12] = [test solute]i = 5 mM (intracellular)
[13] = [test solute]i = 45 mM (intracellular; 30 mM for some solutes due to solubility)
[14] = [test solute]i = 5 mM (injected)
[15] = [test solute]i = 45 mM (30 mM for some solutes due to solubility)

## CCN(CC)CCCC(C)Nc1ccnc2cc(Cl)ccc12 (centres unmarked) [CQ, chloroquine, reference compound]
[1]; 72 h, read-out: IC50 (nM), parasite proliferation, + 1 μM VP, SEM
  IC50: 26 ± 1.3 nM
[1]; C2GC03, 72 h, 37 °C, SYBR Safe, mean ± SEM, n = 5, read-out: IC50 (nM), parasite proliferation, Control
  IC50: 27 ± 1.6 nM
[2]; 0 mM Ca2+, Experiment 1
  [3H]CQ transport, PfNT1: 3.03 % PfCRTDd2 control
[2]; 0 mM Ca2+, Experiment 2
  [3H]CQ transport, PfNT1: 3.55 % PfCRTDd2 control
[2]; 0 mM Ca2+, Experiment 3
  [3H]CQ transport, PfNT1: 3.65 % PfCRTDd2 control
[2]; 0 mM Ca2+, Experiment 4
  [3H]CQ transport, PfNT1: 3.28 % PfCRTDd2 control
[2]; 0 mM Cl-, Experiment 1
  [3H]CQ transport, PfNT1: 3.68 % PfCRTDd2 control
[2]; 0 mM Cl-, Experiment 2
  [3H]CQ transport, PfNT1: 3.72 % PfCRTDd2 control
[2]; 0 mM Cl-, Experiment 3
  [3H]CQ transport, PfNT1: 4.16 % PfCRTDd2 control
[2]; 0 mM Cl-, Experiment 4
  [3H]CQ transport, PfNT1: 3.75 % PfCRTDd2 control
[2]; 0 mM Na+, Experiment 1
  [3H]CQ transport, PfNT1: 3.67 % PfCRTDd2 control
[2]; 0 mM Na+, Experiment 2
  [3H]CQ transport, PfNT1: 3.32 % PfCRTDd2 control
[2]; 0 mM Na+, Experiment 3
  [3H]CQ transport, PfNT1: 3.62 % PfCRTDd2 control
[2]; 0 mM Na+, Experiment 4
  [3H]CQ transport, PfNT1: 3.15 % PfCRTDd2 control
[2]; 1 mM Ca2+, Experiment 1
  [3H]CQ transport, PfNT1: 4.25 % PfCRTDd2 control
[2]; 1 mM Ca2+, Experiment 2
  [3H]CQ transport, PfNT1: 3.56 % PfCRTDd2 control
[2]; 1 mM Ca2+, Experiment 3
  [3H]CQ transport, PfNT1: 3.56 % PfCRTDd2 control
[2]; 1 mM Ca2+, Experiment 4
  [3H]CQ transport, PfNT1: 4.24 % PfCRTDd2 control
[2]; 3 mM Ca2+, Experiment 1
  [3H]CQ transport, PfNT1: 3.29 % PfCRTDd2 control
[2]; 3 mM Ca2+, Experiment 2
  [3H]CQ transport, PfNT1: 3.28 % PfCRTDd2 control
[2]; 3 mM Ca2+, Experiment 3
  [3H]CQ transport, PfNT1: 3.36 % PfCRTDd2 control
[2]; 3 mM Ca2+, Experiment 4
  [3H]CQ transport, PfNT1: 3.62 % PfCRTDd2 control
[2]; 5 mM Ca2+, Experiment 1
  [3H]CQ transport, PfNT1: 3.95 % PfCRTDd2 control
[2]; 5 mM Ca2+, Experiment 2
  [3H]CQ transport, PfNT1: 3.75 % PfCRTDd2 control
[2]; 5 mM Ca2+, Experiment 3
  [3H]CQ transport, PfNT1: 3.96 % PfCRTDd2 control
[2]; 5 mM Ca2+, Experiment 4
  [3H]CQ transport, PfNT1: 3.37 % PfCRTDd2 control
[3]; [10]
  IC50: 25 ± 0.2 nM
[3]; Plasmodium falciparum, C67G8, 72 h, 37 °C, SYBR Safe, mean ± SEM, n = 5, read-out: IC50 (nM), parasite proliferation, Control
  IC50: 87 ± 2.1 nM
[4]; [11]
  IC50: 26 ± 0.1 nM
[5]; Plasmodium falciparum, 3D7, 72 h, 37 °C, SYBR Safe, mean ± SEM, n = 5, read-out: IC50 (nM), parasite proliferation, Control
  IC50: 25 ± 1.1 nM
[5]; Plasmodium falciparum, 3D7, 72 h, read-out: IC50 (nM), parasite proliferation, + 1 μM VP, SEM
  IC50: 24 ± 0.9 nM
[6]; [10]
  IC50: 28 ± 1.6 nM
[6]; Plasmodium falciparum, 72 h, read-out: IC50 (nM), parasite proliferation, Control, SEM
  IC50: 94 ± 4.4 nM
[7]; [11]
  IC50: 25 ± 1 nM

## N[C@@H](Cc1c[nH]cn1)C(=O)O [L-histidine]
[8]; [12]
  PfCRT-mediated [3H]CQ transport, trans-stimulation (% PfCRTEcu1110 control): 98 ± 2.8 % PfCRTEcu1110 control
[8]; [13]
  PfCRT-mediated [3H]CQ transport, trans-stimulation (% PfCRTEcu1110 control): 97 ± 4.1 % PfCRTEcu1110 control
[8]; [14]
  [3H]CQ transport (% PfCRTDd2 control), trans-stimulation, PfCRTEcu1110: 33 ± 2.2 % PfCRTEcu1110 control
[8]; [15]
  [3H]CQ transport (% PfCRTDd2 control), trans-stimulation, PfCRTEcu1110: 32 ± 1.6 % PfCRTEcu1110 control
[9]; [12]
  PfCRT-mediated [3H]CQ transport, trans-stimulation (% PfCRTDd2 control): 99 ± 3.9 % PfCRTDd2 control
[9]; [13]
  PfCRT-mediated [3H]CQ transport, trans-stimulation (% PfCRTDd2 control): 95 ± 2.5 % PfCRTDd2 control
[9]; [14]
  [3H]CQ transport (% PfCRTDd2 control), trans-stimulation, PfCRTDd2: 99 ± 3.9 % PfCRTDd2 control
[9]; [15]
  [3H]CQ transport (% PfCRTDd2 control), trans-stimulation, PfCRTDd2: 95 ± 2.5 % PfCRTDd2 control

## CSCC[C@H](N)C(=O)O [L-methionine]
[8]; [12]
  PfCRT-mediated [3H]CQ transport, trans-stimulation (% PfCRTEcu1110 control): 96 ± 1.4 % PfCRTEcu1110 control
[8]; [13]
  PfCRT-mediated [3H]CQ transport, trans-stimulation (% PfCRTEcu1110 control): 98 ± 4.6 % PfCRTEcu1110 control
[8]; [14]
  [3H]CQ transport (% PfCRTDd2 control), trans-stimulation, PfCRTEcu1110: 32 ± 1.1 % PfCRTEcu1110 control
[8]; [15]
  [3H]CQ transport (% PfCRTDd2 control), trans-stimulation, PfCRTEcu1110: 33 ± 1.3 % PfCRTEcu1110 control
[9]; [12]
  PfCRT-mediated [3H]CQ transport, trans-stimulation (% PfCRTDd2 control): 98 ± 4.1 % PfCRTDd2 control
[9]; [13]
  PfCRT-mediated [3H]CQ transport, trans-stimulation (% PfCRTDd2 control): 97 ± 3.5 % PfCRTDd2 control
[9]; [14]
  [3H]CQ transport (% PfCRTDd2 control), trans-stimulation, PfCRTDd2: 98 ± 4.1 % PfCRTDd2 control
[9]; [15]
  [3H]CQ transport (% PfCRTDd2 control), trans-stimulation, PfCRTDd2: 97 ± 3.5 % PfCRTDd2 control

## CC(C)(C)NC(=O)[C@@H]1C[C@@H]2CCCC[C@@H]2CN1C[C@@H](O)[C@H](Cc1ccccc1)NC(=O)[C@H](CC(N)=O)NC(=O)c1ccc2ccccc2n1 [Saquinavir, saquinavir, reference compound]
[1]; 72 h, read-out: IC50 (μM), parasite proliferation, + 1 μM VP, SEM
  IC50: 5100 ± 200 nM
[1]; C2GC03, 72 h, 37 °C, SYBR Safe, mean ± SEM, n = 5, read-out: IC50 (μM), parasite proliferation, Control
  IC50: 6800 ± 400 nM
[3]; Plasmodium falciparum, C67G8, 72 h, 37 °C, SYBR Safe, mean ± SEM, n = 5, read-out: IC50 (μM), parasite proliferation, Control
  IC50: 4200 ± 400 nM
[3]; read-out: IC50 (μM), parasite proliferation, + 1 μM VP, C67G8, + 1 μM verapamil, 72 h, mean ± SEM, n = 5
  IC50: 2300 ± 300 nM
[4]; Plasmodium falciparum, DD2, C4Dd2, 72 h, 37 °C, SYBR Safe, mean ± SEM, n = 5, read-out: IC50 (μM), parasite proliferation, Control
  IC50: 3500 ± 500 nM
[4]; read-out: IC50 (μM), parasite proliferation, + 1 μM VP, C4Dd2, + 1 μM verapamil, 72 h, mean ± SEM, n = 5
  IC50: 1900 ± 100 nM
[5]; Plasmodium falciparum, 3D7, 72 h, 37 °C, SYBR Safe, mean ± SEM, n = 5, read-out: IC50 (μM), parasite proliferation, Control
  IC50: 7400 ± 300 nM
[5]; read-out: IC50 (μM), parasite proliferation, + 1 μM VP, SEM
  IC50: 5900 ± 600 nM
[6]; Plasmodium falciparum, 72 h, read-out: IC50 (μM), parasite proliferation, Control, SEM
  IC50: 4700 ± 100 nM
[6]; read-out: IC50 (μM), parasite proliferation, + 1 μM VP, 7G8, + 1 μM verapamil, 72 h, mean ± SEM, n = 5
  IC50: 2200 ± 100 nM
[7]; Plasmodium falciparum, DD2, 72 h, read-out: IC50 (μM), parasite proliferation, Control, SEM
  IC50: 3300 ± 200 nM
[7]; read-out: IC50 (μM), parasite proliferation, + 1 μM VP, Dd2, + 1 μM verapamil, 72 h, mean ± SEM, n = 5
  IC50: 2100 ± 300 nM
